“And” between values parts separate entries of the source, which are not always exact repeats. Identical values can stand only once. Like-named read-outs stand apart in the source and are kept apart here.

Data set [1] has as its system MERS-CoV. Particulars: read-out: 50% effective concentration [EC50]; cited from earlier work.
The subject of data set [2] is SARS-CoV-2. Particulars: cited from earlier work.
Data set [3] relates to Ebola virus. To be noted: mouse, in vivo; cited from earlier work.
For data set [4] the following is noted: in vivo; cited from earlier work.
Data set [5] has as its system SARS-CoV-1. Particulars: cited from earlier work.
The conditions of data set [6]: cited from earlier work.
Data set [7] has as its system Ebola virus. To be noted: read-out: 50% inhibitive concentration [IC50]; cited from earlier work.
Data set [8] deals with SARS-CoV-2. To be noted: human, in vivo.
In data set [9] the test system is SARS-CoV-2. To be noted: human, in vivo. This is another data set of the same source.
Data set [10] has as its system RAC1. To be noted: IBD patients; cited from earlier work.

As to `CN(C)CCOc1ccc(/C(=C(/CCCl)c2ccccc2)c2ccccc2)cc1` [toremifene], the EC50 in data set [1] is 12.9 µM; in data set [5], 12 µM. For the same molecule, the results for the IC50 in data set [2] and in [7] were 3.58 µM and roughly 1 µM, respectively. Besides, the survival rate entry in data set [3] was “significantly improved survival rate”. Besides, in data set [4], the bioavailability result was “good”. The “bound to plasma protein” value in [6] is 99%.

Regarding `COc1ccccc1OCCNCC(O)COc1cccc2[nH]c3ccccc3c12` (centres unmarked) [carvedilol], the “odds ratio of a positive laboratory test result for SARS-CoV-2” value in data set [8] was 0.74 and 0.90 and 0.73.

For `COc1ccc2[nH]cc(CCNC(C)=O)c2c1` [melatonin], the “odds ratio of SARS-CoV-2 positive test” value in data set [8] is 0.52 and 0.61 and 0.80. Further, in data set [9], the “odds ratio of a positive laboratory test result for SARS-CoV-2” value was 0.36 and 0.35 and 0.56 and 0.46.

Consider `S=c1nc[nH]c2nc[nH]c12` [Mercaptopurine, mercaptopurine], for which, in data set [10], the RAC1 expression result is on record as “lower RAC1 expression”.

(Values after patent publication US20230233489A1 (priority 2020, published 2023).)
